Laboratory results from PubChem BioAssay (NCI).
“And” between values parts separate entries of the source, which are not always exact repeats. Equal entries are not always repeated.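 Briefly, cells in 96-well plates were exposed to five compound concentrations for 48 h, and endpoints were estimated by linear interpolation. GI50: concentration for 50% inhibition of growth. At the TGI there is no net growth.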

What was measured:
Test in all cases: growth of human tumour cells (NCI), 48 h
UO-31 renal = tested on: UO-31 renal
KM20L2 colon = tested on: KM20L2 colon
CCRF-CEM leukemia = tested on: CCRF-CEM leukemia
XF 498 CNS = tested on: XF 498 CNS
LOX IMVI melanoma = tested on: LOX IMVI melanoma
OVCAR-8 ovarian = tested on: OVCAR-8 ovarian
U251 CNS = tested on: U251 CNS
A549 NSCLC = tested on: A549 NSCLC
UACC-257 melanoma = tested on: UACC-257 melanoma
DMS 273 small cell lung = tested on: DMS 273 small cell lung
DU-145 prostate = tested on: DU-145 prostate
HS 578T breast = tested on: HS 578T breast

Structure (SMILES) | TGI (UO-31 renal) | TGI (KM20L2 colon) | TGI (CCRF-CEM leukemia) | TGI (XF 498 CNS) | TGI (LOX IMVI melanoma) | TGI (OVCAR-8 ovarian) | TGI (U251 CNS) | TGI (A549 NSCLC) | TGI (UACC-257 melanoma) | TGI (DMS 273 small cell lung) | TGI (DU-145 prostate) | TGI (HS 578T breast) | GI50 (UO-31 renal) | GI50 (OVCAR-8 ovarian) | GI50 (A549 NSCLC) | GI50 (HS 578T breast) | GI50 (DU-145 prostate) | GI50 (LOX IMVI melanoma) | GI50 (U251 CNS) | GI50 (UACC-257 melanoma)
Nc1ncnc2c1ncn2C1OC(COP(=O)(O)O)C(O)C1O (stereo unspecified) | > 50 µM | > 50 µM | > 50 µM | > 44.7 µM | > 50 µM | 15.2 µM | > 50 µM | > 50 µM | > 50 µM | > 50 µM | – | – | – | – | – | – | – | – | – | –
COc1cc2c(cc1OC)-c1cc3ccccc3c[n+]1CC2 | > 100 µM | – | > 100 µM | – | > 100 µM | > 100 µM | > 100 µM | > 100 µM | > 100 µM | – | > 100 µM | 94.7 µM | – | – | – | – | – | – | – | –
Cc1ccccc1C(=O)c1c(O)c2c(c(O)c1Br)CCCC2 | 31.7 µM | 41.4 µM | – | 36.6 µM | – | 36 µM | 31.5 µM | 54.1 µM | 29.2 µM | 35.4 µM | – | – | – | – | – | – | – | – | – | –
O=[N+]([O-])c1nc(-c2ccccn2)[nH]c1[N+](=O)[O-] | > 100 µM | > 100 µM | > 100 µM | > 100 µM | > 100 µM | – | > 100 µM | > 100 µM | > 100 µM | > 100 µM | – | – | – | – | – | – | – | – | – | –
CCOc1ccc2nc(-c3ccc(O)cc3)sc2c1 | > 100 µM | – | – | – | > 100 µM | > 100 µM | > 100 µM | > 100 µM | 64.5 µM | – | > 100 µM | – | – | – | – | – | – | – | – | –
C/C=C/[C@H]1O[C@@](O)([C@@H](C)[C@H](O)[C@H](C)[C@H]2OC(=O)/C(OC)=C/C(C)=C/[C@@H](C)[C@@H](O)[C@@H](CC)[C@@H](O)[C@H](C)C/C(C)=C/C=C/[C@@H]2OC)C[C@H](OC2CC(O)C(O)C(C)O2)[C@@H]1C (stereo partly specified) | 0.29 µM | – | < 0.0075 µM | – | – | 12 µM | 11.4 µM | 12.3 µM | < 0.0075 µM | – | 15.1 µM | 17.3 µM | – | – | – | – | – | – | – | –
O=C(O)c1ccccc1NC(c1ccccc1)c1ccc2cccnc2c1O (stereo unspecified) | 23.8 µM | – | > 22.7 µM | – | 43.2 µM | > 100 µM | 21.8 µM | > 100 µM | 43.9 µM | – | > 100 µM | > 68.1 µM | – | – | – | – | – | – | – | –
N/C(=N\N=C/c1ccccc1O)NO | > 95.5 µM | > 100 µM | > 50.9 µM | 37.4 µM | > 100 µM | > 43.7 µM | > 100 µM | > 100 µM | > 100 µM | 28.7 µM | – | – | – | – | – | – | – | – | – | –
O=C1OC(c2ccccc2)=N/C1=C\c1cccnc1 | > 100 µM | – | > 100 µM | – | – | > 100 µM | > 100 µM | > 100 µM | > 100 µM | – | – | > 100 µM | – | – | – | – | – | – | – | –
O=C(O)c1cc2ccccc2c(N=Nc2ccccc2)c1O | > 100 µM | – | > 100 µM | – | – | > 100 µM | 45.1 µM | 40.1 µM | 30.5 µM | – | 29.7 µM | > 100 µM | – | – | – | – | – | – | – | –
CC(=O)OC1C(C)OC(Oc2c(C)c3c4c(c2O)[C@@H](C)CC[C@@H]4[C@@H](C)C[C@H]3C=C(C)C)C(O)C1O (stereo partly specified) | > 100 µM | – | – | – | – | > 100 µM | – | > 100 µM | – | – | – | 5.51 µM | 22.6 µM | 37.8 µM | 10 µM | 2.43 µM | – | – | – | –
CC[C@]1(O)C[C@H]2CN(CCc3c([nH]c4ccccc34)[C@@](C(=O)OC)(c3cc4c(cc3OC)N(C=O)[C@H]3[C@@](O)(C(=O)OC)[C@H](OC(C)=O)[C@]5(CC)C=CCN6CC[C@]43[C@@H]65)C2)C1 | – | 0.206 µM | – | 2.5 µM | – | – | 1.66 µM and 2.53 µM and 16.6 µM | – | – | 3.13 µM | – | – | 0.476 µM | – | – | – | – | – | – | –
CCS(=O)(=O)N1CCC(C(C)n2c(C)c(C(=O)NCc3c(OC)cc(C)[nH]c3=O)c3ccccc32)CC1 (stereo unspecified) | > 100 µM | – | – | – | > 100 µM | > 100 µM | > 100 µM | > 100 µM | > 100 µM | – | > 100 µM | > 100 µM | > 100 µM | > 100 µM | > 100 µM | > 100 µM | > 100 µM | > 100 µM | > 100 µM | > 100 µM
COC1=C2CC(C)CC(OC)C(O)C(C)/C=C(\C)C(OC(N)=O)C(OC)/C=C\C=C(/C)C(=O)NC(=C(C=NC(C)(C)C)C1=O)C2=O (stereo unspecified) | 40.5 µM | 14.6 µM | 22.2 µM | 3.09 µM | 22.3 µM | 73.6 µM | 21.9 µM | 37.5 µM | 17.8 µM | 11.9 µM | – | – | – | – | – | – | – | – | – | –
NC(=O)c1nnc2ccc(F)cc2c1N | > 100 µM | – | > 100 µM | – | > 100 µM | > 100 µM | > 100 µM | > 100 µM | > 100 µM | – | > 100 µM | > 100 µM | – | – | – | – | – | – | – | –
C/C(CC/C(C)=N/O)=N\O | > 100 µM | – | – | – | > 100 µM | > 100 µM | > 100 µM | > 100 µM | > 100 µM | – | > 100 µM | > 100 µM | – | – | – | – | – | – | – | –
